Source: patent publication US9718792B2, “Isoxazoline hydroxamic acid derivatives as LpxC inhibitors” (priority 2014, dated 2017)
≈ marks a conversion by molar mass, not a printed value. Like-named read-outs stand apart in the source and are kept apart here.

Legend:
P. aeruginosa LpxC = P. aeruginosa LpxC (Pseudomonas aeruginosa (strain ATCC 15692 / DSM 22644 / CIP 104116 / JCM 14847 / LMG 12228 / 1C / PRS 101 / PAO1), UniProt P47205); test: P. aeruginosa LpxC Inhibition Assay; format: biochemical; settings: 1 nM P. aeruginosa LpxC, 2 μM substrate, LC-MS/MS; read-out: PA LpxC IC50
Text: The P. aeruginosa LpxC protein is produced according to the general method of Hyland et al (Journal of Bacteriology 1997 179, 2029-2037: Cloning, expression and purification of UDP-3-O-acyl-GIcNAc deacetylase from Pseudomonas aeruginosa: a metalloamidase of the lipid A biosynthesis pathway). The LC-MS/MS method for quantitation of LpxC product was developed using an Agilent 1200 Capillary HPLC system coupled to an Applied Biosystems MDS Sciex 4000QTRAP mass spectrometer. Both instruments are controlled using the Applied Biosystems MDS Sciex Analyst software. LpxC reaction product (UDP-3-O—(R-3-hydroxyacyl)-glucosamine) was produced by hydrolysis of LpxC substrate catalyzed by P.a. LpxC and purified using reversed phase chromatography on a Phenomenex Luna C18(2) 4.6×50 mm column. An LpxC product calibration curve was generated to evaluate the sensitivity and dynamic range of the LC-MS/MS method. Briefly, compounds are pre-incubated with 1 nM P. aeruginosa LpxC for 30 min. at room temperature. Reactions are initiated by the addition of 2 μM UDP-3-O—(R-3-hydroxydecanoyl)-GIcNAc. Reactions are conducted in a 384-well plate with a total volume of 50 μL in each well containing 50 mM Sodium phosphate pH 7.5, 0.005% Trition X-100 for 20 min at room temperature. After quenching with 1.8% HOAc (5 μL of a 20% HOAc added to each well), reaction mixtures are analyzed using the LC-MS/MS method and peak areas are transformed into product concentration using a LpxC product calibration curve. Total activity (0% inhibition control) is obtained from reactions with no inhibitors and 100% inhibition control is the background using quenched samples before reaction starts. For IC50 determinations, peak areas are converted to percent inhibition in Microsoft Excel. Percent inhibition values are plotted vs. log compound concentration using XLfit. Data is fit to the four-parameter logistic equation using the non-linear regression algorithm in XLfit to return the IC50 and hill slope values.

P. aeruginosa PAO1 = test: Susceptibility Testing (MIC, broth microdilution); format: cell-based, Pseudomonas aeruginosa; settings: Pseudomonas aeruginosa, PAO1, 20 h, read-out: PAO1 MIC
Experimental: Bacterial isolates were cultivated from −70° C. frozen stocks by two consecutive overnight passages at 35° C. in ambient air on 5% blood agar (Remel, Lenexa, Kans.). Quality control and P. aeruginosa ATCC 27853) is from the American Type Culture Collection (ATCC; Rockville, Md.) and PAO1 was received from Dr. K. Poole.
Minimal Inhibitory Concentrations (MICs) were determined by the broth microdilution method in accordance with Clinical and Laboratories Institute (CLSI) guidelines. In brief, fresh bacterial overnight cultures were resuspended in sterile saline, adjusted to a 0.5 McFarland turbidity standard and then diluted […] in cation adjusted Mueller-Hinton Broth II (MHB; Remel BBL) to yield a final inoculum of approximately 5×10^5 colony-forming units (CFU)/mL. Two-fold serial dilutions of compounds were prepared in 100% dimethyl sulfoxide (DMSO) at 100-fold the highest final assay concentration; the resulting dilution series of compounds were diluted 1:10 with sterile water. Ten μl of the drug dilution series in 10% DMSO was transferred to microtiter wells and 90 μl of bacterial suspension was inoculated into the wells. All inoculated microdilution trays were incubated in ambient air at […] for 20 hours. Following incubation, assay plates were read in a microtiter plate reader at 600 nm and visually inspected to confirm the MIC endpoint well with the OD value. The lowest concentration of the compound that prevented visible growth was recorded as the MIC. Performance of the assay was monitored by testing ciprofloxacin against laboratory quality control strains in accordance with guidelines of the CLSI.

[1] = P. aeruginosa PAO1, broth microdilution, 20 hours

Molecule `C[C@@](C[C@H]1CC(c2ccc(C#CCCF)cc2)=NO1)(C(=O)NO)S(C)(=O)=O` [Compound 22, (R)-3-((R)-3-(4-(4-fluorobut-1-yn-1-yl)phenyl)-4,5-dihydroisoxazol-5-yl)-N-hydroxy-2-methyl-2-(methylsulfonyl)propanamide] has an IC50 (P. aeruginosa LpxC) of under 0.5 nM and an MIC (P. aeruginosa PAO1; [1]) of 0.5 µg/mL (≈ 1.26 µM).
Molecule `CCCc1ccc(C2=NO[C@@H](C[C@](C)(C(=O)NO)S(C)(=O)=O)C2)cc1` [Compound 23, (R)—N-hydroxy-2-methyl-2-(methylsulfonyl)-3-((R)-3-(4-propylphenyl)-4,5-dihydroisoxazol-5-yl)propanamide] has an IC50 (P. aeruginosa LpxC) of under 0.5 nM and an MIC (P. aeruginosa PAO1; [1]) of 0.5 µg/mL (≈ 1.36 µM).
`C/C=C/c1ccc(C2=NO[C@@H](C[C@](C)(C(=O)NO)S(C)(=O)=O)C2)cc1` [Compound 24, (R)—N-hydroxy-2-methyl-2-(methylsulfonyl)-3-((R)-3-(4-((E)-prop-1-en-1-yl)phenyl)-4,5-dihydroisoxazol-5-yl)propanamide] gave an IC50 (P. aeruginosa LpxC) of 0.8 nM and an MIC (P. aeruginosa PAO1; [1]) of 0.5 µg/mL (≈ 1.36 µM).
For `C/C=C(\F)c1ccc(C2=NO[C@@H](C[C@](C)(C(=O)NO)S(C)(=O)=O)C2)cc1` [Compound 29, (R)-3-((R)-3-(4-((Z)-1-fluoroprop-1-en-1-yl)phenyl)-4,5-dihydroisoxazol-5-yl)-N-hydroxy-2-methyl-2-(methylsulfonyl)propanamide], the IC50 (P. aeruginosa LpxC) was 0.6 nM and the MIC (P. aeruginosa PAO1; [1]) was 0.125 µg/mL (≈ 0.325 µM).
`CC(O)C#CC#Cc1ccc(C2=NO[C@@H](C[C@](C)(C(=O)NO)S(C)(=O)=O)C2)cc1` (stereo partly drawn) [Compound 30, (2R)—N-hydroxy-3-((5R)-3-(4-(5-hydroxyhexa-1,3-diyn-1-yl)phenyl)-4,5-dihydroisoxazol-5-yl)-2-methyl-2-(methylsulfonyl)propanamide] showed an IC50 (P. aeruginosa LpxC) of 0.5 nM and an MIC (P. aeruginosa PAO1; [1]) of 0.06 µg/mL (≈ 0.143 µM).
With `CCc1ccc(C2=NO[C@@H](C[C@](C)(C(=O)NO)S(C)(=O)=O)C2)cc1` [Compound 31, (R)-3-((R)-3-(4-ethylphenyl)-4,5-dihydroisoxazol-5-yl)-N-hydroxy-2-methyl-2-(methylsulfonyl)propanamide] the IC50 (P. aeruginosa LpxC) was 1 nM and the MIC (P. aeruginosa PAO1; [1]) was 0.22 µg/mL (≈ 0.621 µM).
`CCSc1ccc(C2=NO[C@@H](C[C@](C)(C(=O)NO)S(C)(=O)=O)C2)cc1` [Compound 32, (R)-3-((R)-3-(4-(ethylthio)phenyl)-4,5-dihydroisoxazol-5-yl)-N-hydroxy-2-methyl-2-(methylsulfonyl)propanamide] showed an IC50 (P. aeruginosa LpxC) of 0.9 nM and an MIC (P. aeruginosa PAO1; [1]) of 0.4 µg/mL (≈ 1.03 µM).
With `C[C@@](C[C@H]1CC(c2ccc(CCCF)cc2)=NO1)(C(=O)NO)S(C)(=O)=O` [Compound 33, (R)-3-((R)-3-(4-(3-fluoropropyl)phenyl)-4,5-dihydroisoxazol-5-yl)-N-hydroxy-2-methyl-2-(methylsulfonyl) propanamide] the IC50 (P. aeruginosa LpxC) was 2 nM and the MIC (P. aeruginosa PAO1) was 0.5 µg/mL (≈ 1.29 µM).
Molecule `C[C@@](C[C@H]1CC(c2ccc(CCCCF)cc2)=NO1)(C(=O)NO)S(C)(=O)=O` [Compound 34, (R)-3-((R)-3-(4-(4-fluorobutyl)phenyl)-4,5-dihydroisoxazol-5-yl)-N-hydroxy-2-methyl-2-(methylsulfonyl) propanamide] has an IC50 (P. aeruginosa LpxC) of 2 nM and an MIC (P. aeruginosa PAO1; [1]) of 0.5 µg/mL (≈ 1.25 µM).
`CC(C)(O)[C@H]1C[C@H](C#Cc2ccc(C3=NO[C@@H](C[C@](C)(C(=O)NO)S(C)(=O)=O)C3)cc2)C1` [Compound 39A, (R)—N-hydroxy-3-((R)-3-(4-(((1 r,3R)-3-(2-hydroxypropan-2-yl)cyclobutyl)ethynyl)phenyl)-4,5-dihydroisoxazol-5-yl)-2-methyl-2-(methylsulfonyl)propanamide] was tested, and the IC50 (P. aeruginosa LpxC) was 0.5 nM and the MIC (P. aeruginosa PAO1; [1]) was 0.5 µg/mL (≈ 1.08 µM).
In the case of `CC(C)(O)[C@H]1C[C@@H](C#Cc2ccc(C3=NO[C@@H](C[C@](C)(C(=O)NO)S(C)(=O)=O)C3)cc2)C1` [Compound 39B, (R)—N-hydroxy-3-((R)-3-(4-(((1 s,3S)-3-(2-hydroxypropan-2-yl)cyclobutyl)ethynyl)phenyl)-4,5-dihydroisoxazol-5-yl)-2-methyl-2-(methylsulfonyl)propanamide], the IC50 (P. aeruginosa LpxC) is reported as 2 nM and the MIC (P. aeruginosa PAO1; [1]) is reported as 1 µg/mL (≈ 2.16 µM).
`C[C@@](C[C@H]1CC(c2ccc(-c3ccc(CCO)cc3)cc2)=NO1)(C(=O)NO)S(C)(=O)=O` [Compound 40, (R)—N-hydroxy-3-((R)-3-(4′-(2-hydroxyethyl)-[1,1′-biphenyl]-4-yl)-4,5-dihydroisoxazol-5-yl)-2-methyl-2-(methylsulfonyl)] showed an IC50 (P. aeruginosa LpxC) of 0.5 nM and an MIC (P. aeruginosa PAO1; [1]) of 0.16 µg/mL (≈ 0.358 µM).
For `C[C@@](C[C@H]1CC(c2ccc(-c3ccc(CO)cc3)cc2)=NO1)(C(=O)NO)S(C)(=O)=O` [Compound 41, (R)—N-hydroxy-3-((R)-3-(4′-(hydroxymethyl)-[1,1′-biphenyl]-4-yl)-4,5-dihydroisoxazol-5-yl)-2-methyl-2-(methylsulfonyl)], the IC50 (P. aeruginosa LpxC) was 0.5 nM and the MIC (P. aeruginosa PAO1; [1]) was 0.125 µg/mL (≈ 0.289 µM).
For `C[C@@](C[C@H]1CC(c2ccc(-c3ccncc3F)cc2)=NO1)(C(=O)NO)S(C)(=O)=O` [Compound 42, (R)-3-((R)-3-(4-(3-fluoropyridin-4-yl)phenyl)-4,5-dihydroisoxazol-5-yl)-N-hydroxy-2-methyl-2-(methylsulfonyl)propanamide], the IC50 (P. aeruginosa LpxC) was 0.5 nM and the MIC (P. aeruginosa PAO1; [1]) was 0.25 µg/mL (≈ 0.593 µM).
With `C[C@@](C[C@H]1CC(c2ccc(-n3nccn3)cc2)=NO1)(C(=O)NO)S(C)(=O)=O` [Compound 43, (R)-3-((R)-3-(4-(2H-1,2,3-triazol-2-yl)phenyl)-4,5-dihydroisoxazol-5-yl)-N-hydroxy-2-methyl-2-(methylsulfonyl)propanamide] the IC50 (P. aeruginosa LpxC) was 5 nM and the MIC (P. aeruginosa PAO1; [1]) was 1.4 µg/mL (≈ 3.56 µM).
Molecule `COC1CC(C#Cc2ccc(C3=NO[C@@H](C[C@](C)(C(=O)NO)S(C)(=O)=O)C3)cc2)C1` (stereo partly drawn) [Compound 44, (R)—N-hydroxy-3-((R)-3-(4-((3-methoxycyclobutyl)ethynyl)phenyl)-4,5-dihydroisoxazol-5-yl)-2-methyl-2-(methylsulfonyl)propanamide] has an IC50 (P. aeruginosa LpxC) of 0.8 nM and an MIC (P. aeruginosa PAO1; [1]) of 0.5 µg/mL (≈ 1.15 µM).
`C[C@@H](O)Cc1ccc(-c2ccc(C3=NO[C@@H](C[C@](C)(C(=O)NO)S(C)(=O)=O)C3)cc2)cc1` [Compound 45, (R)—N-hydroxy-3-((R)-3-(4′-((R)-2-hydroxypropyl)-[1,1′-biphenyl]-4-yl)-4,5-dihydroisoxazol-5-yl)-2-methyl-2-(methylsulfonyl)] was tested, and the IC50 (P. aeruginosa LpxC) was 0.6 nM and the MIC (P. aeruginosa PAO1; [1]) was 0.16 µg/mL (≈ 0.347 µM).
Work on `C[C@H](O)Cc1ccc(-c2ccc(C3=NO[C@@H](C[C@](C)(C(=O)NO)S(C)(=O)=O)C3)cc2)cc1` [Compound 46, (R)—N-hydroxy-3-((R)-3-(4′-((S)-2-hydroxypropyl)-[1,1′-biphenyl]-4-yl)-4,5-dihydroisoxazol-5-yl)-2-methyl-2-(methylsulfonyl)] yielded an IC50 (P. aeruginosa LpxC) of 1 nM and an MIC (P. aeruginosa PAO1; [1]) of 0.125 µg/mL (≈ 0.271 µM).
With `C[C@@](C[C@H]1CC(c2ccc(-c3ccc(CN4CCOCC4)cc3)cc2)=NO1)(C(=O)NO)S(C)(=O)=O` [Compound 47, (R)—N-hydroxy-2-methyl-2-(methylsulfonyl)-3-((R)-3-(4′-(morpholinomethyl)-[1,1′-biphenyl]-4-yl)-4,5-dihydroisoxazol-5-yl)] the IC50 (P. aeruginosa LpxC) was 0.6 nM and the MIC (P. aeruginosa PAO1; [1]) was 0.35 µg/mL (≈ 0.698 µM).
With `COCCOc1ccc(-c2ccc(C3=NO[C@@H](C[C@](C)(C(=O)NO)S(C)(=O)=O)C3)cc2)cc1` [Compound 48, (R)—N-hydroxy-3-((R)-3-(4′-(2-methoxyethoxy)-[1,1′-biphenyl]-4-yl)-4,5-dihydroisoxazol-5-yl)-2-methyl-2-(methylsulfonyl)propanamide] the IC50 (P. aeruginosa LpxC) was 1 nM and the MIC (P. aeruginosa PAO1; [1]) was 0.25 µg/mL (≈ 0.525 µM).
